Measured values as given in US20240207409A1, “ORAL DELIVERY OF OLIGONUCLEOTIDES” (CiVi Biopharma, Inc., priority 2021, published 2024).
Read-outs that look alike come from different tables or passages of the source. {GalNAc3NHC6} = trivalent GalNAc moiety with NHC6 linker, (GalNAc3)(NHC6); l = locked nucleic acid (LNA); d = 2'-deoxy (DNA)

Assays:
[1] = cynomolgus monkey, in vivo, po
Procedure: The objectives of this study were to evaluate the toxicity and reversibility of CIVI 008 and to determine the pharmacology, plasma exposure and target organ accumulation of CIVI 008 when administered daily by oral capsule to the Cynomolgus monkey of Mauritian origin for 42 days compared to administration by the subcutaneous route administered once every two weeks (investigated previously).
Oral Capsule: Capsules containing CIVI 008 (10 mg)/SNAC (100 mg) were manufactured as uniform dry blend formulations, that were filled into Size 4 hard shell gelatin capsules that were enterically coated post fill.

[2] = Liver and intestinal tissue concentrations of CIVI 008 (Example 1); assay type: in vivo, Cynomolgus monkey
From the text: The purpose of this study was to provide information on the capsule dosing of CIVI 008 for further clinical trials in humans.

[3] = Repeat-dose toxicity study to GLP standards, oral capsule (Example 1); conditions: cynomolgus monkey, in vivo
Procedure: (§1) Toxicity results: The study was conducted to GLP standards and monitored the following toxicity parameters throughout the study (pre-dose, day 14, 29, 42, and end of recovery): • Hematology: red blood cell (erythrocyte) count, hemoglobin, hematocrit, mean corpuscular volume, mean corpuscular hemoglobin, mean corpuscular hemoglobin, concentration, red cell distribution width, absolute reticulocyte count, platelet count, white blood cell (leukocyte) count, absolute neutrophil count, absolute lymphocyte count, absolute monocyte count, absolute eosinophil count, absolute basophil count, absolute large unstained cell count, blood smear. • Clinical chemistry, PCSK9 and lipids: urea nitrogen, creatinine, total protein, albumin, globulin, albumin:globulin ratio, total bilirubin, aspartate aminotransferase, alanine aminotransferase, alkaline phosphatase, gamma glutamyltransferase, creatine kinase, calcium, inorganic phosphorus, sodium, potassium, chloride, high density lipoproteins, low density lipoprotein, very low density lipoprotein, total cholesterol, triglycerides.

plasma LDL-cholesterol = assay: Plasma LDL-cholesterol after daily oral CIVI 008/SNAC capsules for 42 days and recovery (Example 1); assay type: in vivo, Cynomolgus monkey; conditions: for LDL-c in control animals: control capsules, throughout the study
Procedure: as §1

[4] = Oral capsule toxicokinetic study of CIVI 008 using 5-CNAC as carrier (Example 3); assay type: in vivo, Cynomolgus monkey; conditions: for increase of AUC with dose of CIVI 008 / increase of Cmax with dose of CIVI 008: constant dose of 5-CNAC
From the text: The objectives of this study were to determine the ability of 5-CNAC [Disodium N-(5-Chorosalicyloyl)-8-aminocaprylate] to facilitate oral uptake of CIVI 008 and to determine the manufacture method and dosing paradigm of CIVI 008/5-CNAC capsules that provide the most efficient oral uptake of CIVI 008 when administered to Cynomolgus monkeys of Mauritian origin.
Study outline: A total of 10 Cynomolgus monkeys (5 males and 5 females) were each dosed with 2 group A capsules on Monday and Wednesday in week 1, followed by 4 days of dosing holiday. This Monday and Wednesday dosing scheme was continued in weeks 2, 3, 5, 6, 7, 8, 13, 14, 15 and 17 using 2 group B-capsules per dose occasion in week 2, and 1 capsule of groups C to K per dose occasion in their respective weeks. During the dosing period, blood samples for PK analysis were drawn pre-dose and 0.5, 1.5, 3 and 5 hours post-dosing on Mondays and Wednesdays. Samples for clinical chemistry and hematology (see example 1) were taken pre-study and end of study.

[5] = Half-life and accumulation of CIVI 008 in the liver; assay type: in vivo, non-human primates; conditions: expected after 7-weeks of once daily dosing
PCSK9 = PCSK9 reduction after daily oral CIVI 008/SNAC capsules for 42 days (Example 1); assay type: in vivo, Cynomolgus monkey; conditions: daily oral for 42 days
Procedure: as §1

[6] = Oral capsule PK study of an oligo against Factor VII, with or without GalNAc, using 5-CNAC as carrier (Example 6); assay type: in vivo, Cynomolgus monkey; conditions: for PK parameters compared to the corresponding CIVI 008 oligos: with and without GalNac
Procedure: (§2) Study outline: Dry blended capsules (20 mg Factor FVII with or without GalNac/200 mg 5-CNAC) were manufactured from uniform dry blended formulations, that were filled into enterically coated Size 0, hard shell gelatin capsules. A total of 10 Cynomolgus monkeys (5 males and 5 females) were each administered a single capsule of either oligo by oral gavage, and blood samples for PK analysis were drawn pre-dose and 0.5, 1.5, 3 and 5 hours post-dosing.

[7] = Oral capsule PK study of CIVI 008 without GalNAc using 5-CNAC as carrier (Example 5); assay type: in vivo, Cynomolgus monkey; conditions: single oral capsule, 20 mg/200 mg 5-CNAC; larger
From the text: As shown in previous Examples 1 and 3, orally dosed CIVI 008 with GalNAc is rapidly internalized in the liver by the GalNAc receptor, with very little CIVI 008 escaping into general circulation at doses below that required for saturation of the GalNAc receptor. In many instances the objective is to target genes that are expressed in organs other than the liver. […] The objective of this study was to determine the systemic exposure of orally administered CIVI 008 without the GalNAc conjugate, and to compare the exposure to that of a similar oral dose of CIVI 008 with GalNAc.
as §2, with “CIVI 008” for “Factor FVII with or”, “GalNAc/200” for “GalNac/200”, “capsule” for “capsule of either oligo”

[8] = dose increased further than 25 mg
[9] = oral, two group A capsules (each 10 mg CIVI 008/100 mg 5-CNAC, size 4)
[10] = size 4 (group A) to size 0 (group B) capsules
[11] = single oral capsule, 20 mg/200 mg 5-CNAC
[12] = single oral capsule, 20 mg/200 mg 5-CNAC, higher

Compound: CIVI 008: GalNac conjugated LNA-gapmer antisense oligonucleotide targeting PCSK9 (SEQ ID NO: 134), cepadacursen formulated for oral administration (AATGCTACAAAACCCA; LNA gapmer with GalNAc conjugate, pattern not given here)
- form of CIVI 008 detected in plasma (HPLC peak) [1]: mixture of parent compound and metabolites
- form of CIVI 008 detected in plasma (HPLC retention time) [1]: absorbed intact
- mean Tmax [1]: ≤ 30 min
- concentrations of CIVI 008 in intestinal segments ([2]; all segments, after QD oral dosing for 42 days): measurable concentrations
- concentration of CIVI 008 in the liver during the recovery period ([2]; declined during recovery, 3-week timepoint): still present in measurable quantities
- difference in liver concentrations between the SQ and PO arms ([2]; measured at the end of the dosing period): approximately one
- macroscopic or microscopic findings (local or systemic effects) [3]: no macroscopic or microscopic findings
- local histopathological changes in the intestinal tract (duodenum, jejunum, ileum and colon) ([3]; po): no local histopathological changes
- LDL-c in control animals (plasma LDL-cholesterol): fluctuated around baseline values
- return of LDL to baseline (plasma LDL-cholesterol; end of recovery): had yet to fully return to baseline
- LDL levels after the end of dosing (plasma LDL-cholesterol; recovery period after 42 days of dosing): maintained for two weeks post-dosing
- increase of AUC with dose of CIVI 008 [4, 8]: more than dose proportional
- increase of Cmax with dose of CIVI 008 [4, 8]: more than dose proportional
- increase of AUC with dose of CIVI 008 ([4]; up to 25 mg CIVI 008): dose proportionally
- increase of Cmax with dose of CIVI 008 ([4]; up to 25 mg CIVI 008): dose proportionally
- AUC profiles, dry blended vs freeze-dried capsules ([4]; dose range 5 mg to 30 mg): very similar
- Cmax profiles, dry blended vs freeze-dried capsules ([4]; dose range 5 mg to 30 mg): very similar
- effect of manufacture method on intestinal absorption ([4]; dry blending vs co-dissolution followed by freeze-drying): did not appear to affect
- AUC0-5 with 5-CNAC carrier compared to a similar dose using SNAC as carrier ([4]; oral capsules, vs Example 1): increase
- Cmax with 5-CNAC carrier compared to a similar dose using SNAC as carrier ([4]; oral capsules, vs Example 1): increase
- concentrations of CIVI 008 in the plasma [4, 9]: measurable concentrations
- mean Tmax [4, 9]: ≤ 30 min
- mean Tmax on increasing capsule size [4, 10]: didn't change
- mean plasma PK profile on increasing capsule size [4, 10]: didn't change
- liver concentration relative to its steady state level [5]: > 80%
- mean PCSK9 reductions in control animals (PCSK9): comparatively small

Compound: unconjugated Factor FVII oligo: 13 nt ASO against Factor VII, SEQ ID NO 158, GbsCbsdAsdCsdCsdAsdCsdGsdGsdTsCbsCbsAb (antisense GCACCACGGTCCA; sugars from the 5' end l2 d8 l3, all phosphorothioate, methylation of C not given here)
- concentrations in the plasma [6, 11]: measurable concentrations
- AUC relative to the GalNac conjugated Factor FVII oligo [6, 12]: ~3.5 fold
- Cmax relative to the GalNac conjugated Factor FVII oligo [6, 12]: ~3.5 fold
- PK parameters compared to the corresponding CIVI 008 oligos [6]: quite similar

Compound: GalNac conjugated Factor FVII oligo: 13 nt ASO against Factor VII, SEQ ID NO 158, with (GalNAc3)(NHC6) moiety (antisense GCACCACGGTCCA; sugars from the 5' end l2 d8 l3, all phosphorothioate, 5' {GalNAc3NHC6}*, methylation of C not given here)
- concentrations in the plasma [6, 11]: measurable concentrations
- PK parameters compared to the corresponding CIVI 008 oligos [6]: quite similar

Compound: CIVI 008 without GalNAc: 16 nt LNA gapmer AbsAbsTbsdGsdCsdTsdAsdCsdAsdAsdAsdAsdCsCbsCbsAb, SEQ ID NO 134, no GalNAc moiety (AATGCTACAAAACCCA; sugars from the 5' end l3 d10 l3, all phosphorothioate, methylation of C not given here)
- AUC relative to a similar dose of CIVI 008 with GalNac [7]: ~8 fold
- Cmax relative to a similar dose of CIVI 008 with GalNac [7]: ~8 fold

Compound: O=C([O-])CCCCCCCNC(=O)c1ccccc1O.[Na+] [SNAC, sodium 8-(2-hydroxybenzamido)octanoate, reference compound]
- LDL-c in control animals (plasma LDL-cholesterol): fluctuated around baseline values
- mean PCSK9 reductions in control animals (PCSK9): comparatively small
